Laboratory results taken from patent US6583171B1, “Antineoplastic agents” (Welichem Biotech Inc., priority 1996, dated 2003).
Like-named read-outs stand apart in the source and are kept apart here.

Legend:
Breast Cancer (LCC6) = assay: Anticancer activity of xenorxide derivatives (Example 8), LCC6; type: cell-based; conditions: Homo sapiens, LCC-6; LCC6 breast cancer cells
Description: (§1) Anticancer Activity of Xenorxide Derivatives Against Human Lung Cancer (H460) and Breast Cancer (LCC6)

Human Lung Cancer (H460) = assay: Anticancer activity of xenorxide derivatives (Example 8), H460; type: cell-based; conditions: NCI-H460; H460 human lung cancer cells
Description: as §1

MCF-7 = assay: NCI sulforhodamine B (SRB) anticancer assay, MCF-7; type: cell-based
Description: (§2) The method normally used by the American National Cancer Institute (NCI) for the effectiveness of a compound is based on the LC50. The LC50 is the compound concentration at which half of the cancer cell population is killed. The assay is commonly used by those skilled in the art and are accepted as indicative of anticancer activity in mammals. The test animal cancer cells are available from ATCC, NCI and other organizations. The anticancer activities of compounds of the present invention have been determined in cell cultures of various human cancer cells (see table below) using the standard NCI method with slight modifications. The specifications of the procedure was described by Skehan et al. (1990). Briefly, cancer cells were grown in RPMI-1640 medium with glutamine and 10% fetal calf serum, and were harvested from exponential-phase maintenance cultures. The harvested cells were counted and dispensed into replicate 96-well culture plates in 180 μl volumes for each well with a cell density of up to 2,500 cells/well. The cells were allowed to settle for about 4 hours at 37° C. Then 20 μl of medium containing the test compound was added into each well, resulting in a suitable final test compound concentration. The test plates were then incubated at 37° C. The test was terminated after incubation by adding to each well 50 1 of cold 50% trichloroacetic acid. The cells were fixed for an hour at 4° C. and then washed five times with tap water. The washed plates were air-dried and stained for 30 minutes with 0.4% (wt/vol) sulforhodamine B (SRB) which was dissolved in 1% acetic acid. At the end of the staining period, the SRB was removed and plates were quickly rinsed five times with 1% acetic acid. After being rinsed, the plates were air-dried and 100 μl of 10 mM tris base (pH 10.5) were added to each well to dissolve the dye bound to the cells. The plates were placed on a gyratory shaker and shaken (100 rpm) for 10 minutes. Finally, the plates were read in a microtiter plate reader at 570 nm.

HT29 = assay: NCI sulforhodamine B (SRB) anticancer assay, HT29; type: cell-based
Description: as §2

Hela = assay: NCI sulforhodamine B (SRB) anticancer assay, Hela; type: cell-based
Description: as §2

UO-31 (Renal cancer) = assay: NCI sulforhodamine B (SRB) anticancer assay, UO-31; type: cell-based; conditions: UO-31 (Renal cancer) cells, read-out: LC50 (the source's name)
Description: as §2

Sk-Mel-28 = assay: NCI sulforhodamine B (SRB) anticancer assay, Sk-Mel-28; type: cell-based; conditions: Sk-Mel-28 cells, read-out: LC50 (the source's name)
Description: as §2

SF-295 (CNS cancer) = assay: NCI sulforhodamine B (SRB) anticancer assay, SF-295; type: cell-based; conditions: SF-295 (CNS cancer) cells, read-out: LC50 (the source's name)
Description: as §2

NCI-H460 = assay: NCI sulforhodamine B (SRB) anticancer assay, NCI-H460; type: cell-based; conditions: NCI-H460 cells, read-out: LC50 (the source's name)
Description: as §2

DU-145 (Prostate cancer) = assay: NCI sulforhodamine B (SRB) anticancer assay, DU-145; type: cell-based; conditions: DU-145 (Prostate cancer) cells, read-out: LC50 (the source's name)
Description: as §2

P388 = assay: NCI sulforhodamine B (SRB) anticancer assay, P388; type: cell-based; conditions: P388 cells; read-out: LC50 (the source's name)
Description: as §2, with “The test was terminated after incubation by adding to each well 50 1 of cold 50% trichloroacetic acid. The cells were fixed for an hour at 4° C. and then washed five times with tap water. The washed plates were air-dried and stained for 30 minutes with 0.4% (wt/vol) sulforhodamine B (SRB) which was dissolved in 1% acetic acid. At the end of the staining period, the SRB was removed and plates were quickly rinsed five times with 1% acetic acid. After being rinsed, the plates were air-dried and 100 μl of 10 mM tris base (pH 10.5) were added to each well to dissolve the dye bound to the cells. The plates were placed on a gyratory shaker and shaken (100 rpm) for 10 minutes.” left out

LNCap = assay: NCI sulforhodamine B (SRB) anticancer assay, LNCap; type: cell-based, human; conditions: LNCap cells; read-out: LC50 (the source's name)
Description: as §2, with “The test was terminated after incubation by adding to each well 50 1 of cold 50% trichloroacetic acid. The cells were fixed for an hour at 4° C. and then washed five times with tap water. The washed plates were air-dried and stained for 30 minutes with 0.4% (wt/vol) sulforhodamine B (SRB) which was dissolved in 1% acetic acid. At the end of the staining period, the SRB was removed and plates were quickly rinsed five times with 1% acetic acid. After being rinsed, the plates were air-dried and 100 μl of 10 mM tris base (pH 10.5) were added to each well to dissolve the dye bound to the cells. The plates were placed on a gyratory shaker and shaken (100 rpm) for 10 minutes.” left out

[1] = MCF-7 cells, read-out: LC50 (the source's name)
[2] = HT29 cells, concentration at which half of the cancer cell population is killed, read-out: LC50 (the source's name)
[3] = Hela cells, read-out: LC50 (the source's name)

## COc1ccc(N2C(=O)C(NC(=O)C(F)(F)F)=C3C2=CSS3(=O)=O)cc1 [BLI-041-1]
Breast Cancer (LCC6)
  IC50: 6.38 µM
Human Lung Cancer (H460)
  IC50: 2.13 µM

## COc1ccc(N2C(=O)C(NC(C)=O)=C3C2=CSS3(=O)=O)cc1 [BLI-042-1]
Breast Cancer (LCC6)
  IC50: 1.63 µM
Human Lung Cancer (H460)
  IC50: 0.23 µM

## O=C(NC1=C2C(=CSS2(=O)=O)N(Cc2ccccc2)C1=O)c1ccccc1 [CSL-29]
Breast Cancer (LCC6)
  IC50: 1.97 µM
Human Lung Cancer (H460)
  IC50: 1.98 µM

## CC(=O)NC1=C2C(=CSS2(=O)=O)N(c2ccccc2)C1=O [CSL-30]
Breast Cancer (LCC6)
  IC50: 0.67 µM
Human Lung Cancer (H460)
  IC50: 0.56 µM

## CCCCCC(=O)Nc1c2[s+]([O-])scc-2n(C)c1=O (stereo not drawn) [XM1]
MCF-7; [1]
  CC50: 0.47 µM
HT29; [2]
  CC50: 0.47 µM
Hela; [3]
  CC50: 0.8 µM

## CC(C)CCCC(=O)Nc1c2[s+]([O-])scc-2n(C)c1=O (stereo not drawn) [XM2]
MCF-7; [1]
  CC50: 0.55 µM
HT29; [2]
  CC50: 0.11 µM
Hela; [3]
  CC50: 0.21 µM

## CC(=O)Nc1c2sscc-2n(C)c1=O [XN0, 6-(Acetamido)-4-methyl-4,5dihydro-1.2-dithiolo[4,3-b]pyrrol-5-one]
MCF-7; Homo sapiens, MCF7, read-out: LC50
  CC50: 0.35 µM
HT29; Homo sapiens, HT-29, read-out: LC50
  CC50: 0.13 µM
Hela; Homo sapiens, HeLa, read-out: LC50
  CC50: 0.31 µM

## CCCCCC(=O)Nc1c2sscc-2n(C)c1=O [XN1, 6-(Hexanamido)-4-methyl-4,5-dihydro-1.2-dithiolo[4,3-b]pyrrol-5-one]
MCF-7; [1]
  CC50: 0.56 µM
HT29; [2]
  CC50: 0.11 µM
Hela; [3]
  CC50: 0.46 µM

## CC(C)CCCC(=O)Nc1c2sscc-2[nH]c1=O [XN3, 6(5′-Methylhexanamido)-4,5-dihydro1,2-dithiolo[4,3-b]pyrrol-5one]
UO-31 (Renal cancer); Homo sapiens
  CC50: 0.18 µM
MCF-7; Homo sapiens, MCF7, MCF-7 cells, read-out: LC50 (the source's name)
  CC50: 0.39 µM
Sk-Mel-28; Homo sapiens
  CC50: 0.24 µM
SF-295 (CNS cancer); Homo sapiens
  CC50: 0.04 µM
HT29; Homo sapiens, HT-29, HT29 cells, concentration at which half of the cancer cell population is killed, read-out: LC50 (the source's name)
  CC50: 0.11 µM
Hela; Homo sapiens, Hela cells, read-out: LC50 (the source's name)
  CC50: 0.32 µM
NCI-H460; Homo sapiens
  CC50: 0.03 µM
DU-145 (Prostate cancer); Homo sapiens
  CC50: 0.14 µM

## CCCCCC(=O)NC1=C2C(=CSS2(=O)=O)N(C)C1=O [XO1]
UO-31 (Renal cancer)
  CC50: 1.85 µM
MCF-7; [1]
  CC50: 0.89 µM
P388
  CC50: 0.66 µM
Sk-Mel-28
  CC50: 0.19 µM
SF-295 (CNS cancer)
  CC50: 1.58 µM
LNCap
  CC50: 0.54 µM
HT29; [2]
  CC50: 0.22 µM
Hela; [3]
  CC50: 0.16 µM
NCI-H460
  CC50: 0.28 µM
DU-145 (Prostate cancer)
  CC50: 1.8 µM

## CC(C)CCCC(=O)NC1=C2C(=CSS2(=O)=O)N(C)C1=O [XO2]
UO-31 (Renal cancer)
  CC50: 6 µM
MCF-7; [1]
  CC50: 0.95 µM
P388
  CC50: 0.28 µM
Sk-Mel-28
  CC50: 0.73 µM
SF-295 (CNS cancer)
  CC50: 2.12 µM
LNCap
  CC50: 0.19 µM
HT29; [2]
  CC50: 0.85 µM
Hela; [3]
  CC50: 0.13 µM
NCI-H460
  CC50: 0.22 µM
DU-145 (Prostate cancer)
  CC50: 1.6 µM
